Reference: paper PMC12584634, “Carglumic acid and mesalazine as potential anti-mycobacterial agents: a spectroscopic study for repurposing drugs against Mycobacterium tuberculosis targeting its essential enzyme ThyX” (Microbiology Spectrum, 2025)

Target: ThyX (Rv2754c), flavin-dependent thymidylate synthase (Mycobacterium tuberculosis, UniProt P9WG57)
Assay: intrinsic fluorescence quenching, modified Stern-Volmer
Format: binding
Details: 303 K, 5 µM protein, n ~1, double-log
Description: intrinsic fluorescence quenching, modified Stern-Volmer on ThyX (Rv2754c), flavin-dependent thymidylate synthase

Chain of ThyX (Rv2754c), flavin-dependent thymidylate synthase (P9WG57 whole entry, looked up): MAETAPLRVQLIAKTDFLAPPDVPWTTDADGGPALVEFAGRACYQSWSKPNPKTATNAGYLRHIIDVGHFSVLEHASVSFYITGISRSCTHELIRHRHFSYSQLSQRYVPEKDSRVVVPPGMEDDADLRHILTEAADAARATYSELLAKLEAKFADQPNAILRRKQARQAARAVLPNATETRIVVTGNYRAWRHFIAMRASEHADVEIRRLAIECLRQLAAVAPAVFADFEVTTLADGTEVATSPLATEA

Compound | Ka (× 10^6 mol^-1) (PBS pH 7.4, excitation 280 nm) | Ka (× 10^6 mol^-1) (positive control, text prints unit as M^−1s^−1)
Nc1ccc(O)c(C(=O)O)c1 [mesalazine] | 4.73 × 10^6 mol^−1 | –
NC(=O)N[C@@H](CCC(=O)O)C(=O)O [carglumic acid] | 4.28 × 10^6 mol^−1 | –
Nc1ccc(C(=O)O)c(O)c1 [para-amino salicylic acid, reference compound] | – | 3.44 × 10^6 mol^−1
